“And” between values parts separate entries of the source, which are not always exact repeats. Equal values may be shown once.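 Dose response: 5 concentrations. Exposure: 48 h. Format: 96-well plates. Endpoint: linear interpolation; highest concentration if not reached. Abbreviation: GI50, concentration required for 50% inhibition of growth. TGI: total growth inhibition.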

The first assay has as its system SF-295 CNS. The assay can be described thus: growth of human tumour cells (NCI), 48 h.
For the molecule `CC(C)C(C)/C=C\C(C)C1CCC2C3=CC=C4CC(O)CCC4(C)C3CCC21C` (stereo unspecified), the TGI was over 100 µM.

For the next assay, the system named is MDA-MB-231 breast. As to the kind of experiment: growth of human tumour cells (NCI), 48 h.
With `Fc1cc2[nH]ncc2c2c3c(c(-c4cn[nH]c4)nc12)CCCC3`, the GI50 is 1.5 µM and the TGI was determined as 5.24 µM.
On to `C=C(Br)C(C)(Br)CCC(Br)C(C)(C)Cl` (stereo unspecified), for which the TGI stood at 34.8 µM.
Regarding `CSc1nc(NC2OCC(OC(C)=O)C(OC(C)=O)C2OC(C)=O)c(N=CC=Nc2c(NC3OCC(OC(C)=O)C(OC(C)=O)C3OC(C)=O)nc(SC)[nH]c2=O)c(=O)[nH]1` (stereo unspecified), the TGI is over 100 µM.
`CN(C)CCSC1=Nc2ccc(Cl)cc2C(c2ccccc2Cl)=NC1`: the GI50 was 10.7 µM and > 100 µM; the TGI was 22.8 µM and > 100 µM.
For `O=C1OC(O)[C@@H]2[C@H]1[C@H]1CC[C@@H]2O1` (stereo partly specified), the GI50 was over 74.3 µM and the TGI is over 100 µM.
On to `COc1cccc(-c2nc(-c3ccc(NC(=O)C(C)C)cc3)[nH]c2-c2ccnc(Br)c2)c1`, for which the GI50 was 4.09 µM and the TGI is over 100 µM.
In the case of `COc1ccc(-c2nnc(COc3ccc(NC(=O)Nc4cc(C(F)(F)F)cc(C(F)(F)F)c4)cc3F)o2)cc1`, the GI50 was 1.99 µM and the TGI was 4.54 µM.
As to `COc1ccc(/C=C(/C#N)n2nnc3cccc(F)c32)cc1`, the GI50 is 1.37 µM and the TGI amounted to 3.84 µM.
For `OCc1ccc(-c2ccc(-c3ccc(CO)s3)o2)s1`, the TGI is over 92.2 µM.
With `COc1ccc(-c2nnc(COc3ccc(C(=O)/C=C/c4ccco4)cc3)o2)cc1`, the GI50 is 2.99 µM and the TGI is 10.4 µM.
`OC(c1nc2ccccc2[nH]1)C(O)C(O)C(O)c1nc2ccccc2[nH]1` (stereo unspecified) showed a TGI of over 100 µM.
`O=c1c2sccc2n(CC2COc3ccccc3O2)c(=O)n1O` (stereo unspecified): the GI50 was 39 µM and the TGI is over 100 µM.
`COc1cc(/C=C/c2cc(O)c(C(C)=O)c(O)c2)cc2c1O[C@]1(C)CC[C@@H](O)C(C)(C)[C@H]1C2`: the GI50 is 6.26 µM and the TGI is 93 µM.
With `Cc1cccc2c1CC1(C2)Cc2c(C)cccc2C1=O` (stereo unspecified), the TGI was 53.7 µM.
In the case of `CCN(CC)/C(SCc1ccccc1)=C(\C(Cl)=C(Cl)Cl)[N+](=O)[O-]`, the TGI was 49.7 µM.
The molecule `CC(C)C(C)/C=C\C(C)C1CCC2C3=CC=C4CC(O)CCC4(C)C3CCC21C` (stereo unspecified) gave a TGI of over 61.3 µM.

For the next assay, the system named is MDA-MB-435. As to the kind of experiment: growth of human tumour cells (NCI), 48 h.
In the case of `Fc1cc2[nH]ncc2c2c3c(c(-c4cn[nH]c4)nc12)CCCC3`, the GI50 was 0.959 µM and the TGI came out at 3.61 µM.
Take `C=C(Br)C(C)(Br)CCC(Br)C(C)(C)Cl` (stereo unspecified): the TGI turned out to be 41.9 µM.
With `CSc1nc(NC2OCC(OC(C)=O)C(OC(C)=O)C2OC(C)=O)c(N=CC=Nc2c(NC3OCC(OC(C)=O)C(OC(C)=O)C3OC(C)=O)nc(SC)[nH]c2=O)c(=O)[nH]1` (stereo unspecified), the TGI was over 100 µM.
With `CN(C)CCSC1=Nc2ccc(Cl)cc2C(c2ccccc2Cl)=NC1`, the TGI was 28.4 µM and 38.7 µM.
Consider `O=C1OC(O)[C@@H]2[C@H]1[C@H]1CC[C@@H]2O1` (stereo partly specified), for which the GI50 was over 100 µM and the TGI was over 100 µM.
For the molecule `COc1cccc(-c2nc(-c3ccc(NC(=O)C(C)C)cc3)[nH]c2-c2ccnc(Br)c2)c1`, the GI50 is 3.12 µM and the TGI is over 100 µM.
For `COc1ccc(-c2nnc(COc3ccc(NC(=O)Nc4cc(C(F)(F)F)cc(C(F)(F)F)c4)cc3F)o2)cc1` the same measures were 2.11 µM and 5 µM.
For `COc1ccc(/C=C(/C#N)n2nnc3cccc(F)c32)cc1`, in that order: 0.18 µM and 0.471 µM.
In the case of `OCc1ccc(-c2ccc(-c3ccc(CO)s3)o2)s1`, the TGI turned out to be 17.3 µM.
As to `COc1ccc(-c2nnc(COc3ccc(C(=O)/C=C/c4ccco4)cc3)o2)cc1`, the GI50 was 2.13 µM and the TGI is 5.08 µM.
The molecule `OC(c1nc2ccccc2[nH]1)C(O)C(O)C(O)c1nc2ccccc2[nH]1` (stereo unspecified) yielded a TGI of over 100 µM.
For `O=c1c2sccc2n(CC2COc3ccccc3O2)c(=O)n1O` (stereo unspecified), the GI50 is 23.9 µM and the TGI is over 100 µM.
`COc1cc(/C=C/c2cc(O)c(C(C)=O)c(O)c2)cc2c1O[C@]1(C)CC[C@@H](O)C(C)(C)[C@H]1C2`: the GI50 was 7.38 µM and the TGI was 57.2 µM.
For `Cc1cccc2c1CC1(C2)Cc2c(C)cccc2C1=O` (stereo unspecified), the TGI worked out at 55.8 µM.
With `CCN(CC)/C(SCc1ccccc1)=C(\C(Cl)=C(Cl)Cl)[N+](=O)[O-]`, the TGI was 32 µM.
As to `CC(C)C(C)/C=C\C(C)C1CCC2C3=CC=C4CC(O)CCC4(C)C3CCC21C` (stereo unspecified), the TGI is over 83.5 µM.

A further assay concerns SK-MEL-2 melanoma. The assay can be described thus: growth of human tumour cells (NCI), 48 h.
Regarding `Fc1cc2[nH]ncc2c2c3c(c(-c4cn[nH]c4)nc12)CCCC3`, the GI50 is 0.842 µM and the TGI is 3.46 µM.
On to `C=C(Br)C(C)(Br)CCC(Br)C(C)(C)Cl` (stereo unspecified), for which the TGI was 51.6 µM.
As for `CSc1nc(NC2OCC(OC(C)=O)C(OC(C)=O)C2OC(C)=O)c(N=CC=Nc2c(NC3OCC(OC(C)=O)C(OC(C)=O)C3OC(C)=O)nc(SC)[nH]c2=O)c(=O)[nH]1` (stereo unspecified), the TGI was over 100 µM.
Same read-out and setting: then `CN(C)CCSC1=Nc2ccc(Cl)cc2C(c2ccccc2Cl)=NC1`, with over 100 µM.
In the case of `O=C1OC(O)[C@@H]2[C@H]1[C@H]1CC[C@@H]2O1` (stereo partly specified), the GI50 was 39 µM and the TGI is over 82.4 µM.
For `COc1cccc(-c2nc(-c3ccc(NC(=O)C(C)C)cc3)[nH]c2-c2ccnc(Br)c2)c1` the same measures were 2.3 µM and 6.34 µM.
For the molecule `COc1ccc(-c2nnc(COc3ccc(NC(=O)Nc4cc(C(F)(F)F)cc(C(F)(F)F)c4)cc3F)o2)cc1`, the GI50 is 2.66 µM and the TGI is 5.82 µM.

These data come from PubChem BioAssay (NCI).
